Test [1] deals with T1, Mcl-1/Bim interaction, recombinant human Mcl-1 (171-327) (Homo sapiens, UniProt Q07820).
T1 construct: made in house
Briefly: Cell free Mcl-1: Bim Affinity Assay (Mcl-1 HTRF). It is filed as binding. The procedure, abridged: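 Displacement of biotinylated Bim 51-76 peptide is followed by TR-FRET. Incubation runs overnight. Duplicate points are fitted with a four-parameter sigmoid to yield IC50.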
(In general: Time-resolved FRET reads energy transfer from a long-lived donor to a nearby acceptor.)

In test [2] the test system is OPM-2 human multiple myeloma cell line. Description: Cell Viability Assay (OPM-2 10 FBS). As to conditions: OPM-2 cells, CellTiter-Glo. The test is classed as cell-based. The essentials: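 ATP-based luminescence (CellTiter-Glo) measured after a 16 h compound treatment of OPM-2 cells seeded at 3000 cells/well in 10% FBS medium. IC50 values derived by 4-parameter logistic fitting of serial dilutions.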
(In general: Cellular ATP, detected with luciferase, serves as a proxy for viable cell number.)

The mark [3] stands for this setting: cell free Mcl-1:Bim TR-FRET, recombinant human Mcl-1 (171-327).
[4] abbreviates: Homo sapiens, OPM-2, 16 h, 16 h.
Where [5] appears, read: TR-FRET, 0.1 nM Mcl-1 (171-327), 0.05 nM biotin-Bim (51-76).
The mark [6] stands for this setting: Homo sapiens, OPM-2, 16 h, 16 h incubation.

Each structure is given as a SMILES string.

T1 sequence (Q07820 171-327): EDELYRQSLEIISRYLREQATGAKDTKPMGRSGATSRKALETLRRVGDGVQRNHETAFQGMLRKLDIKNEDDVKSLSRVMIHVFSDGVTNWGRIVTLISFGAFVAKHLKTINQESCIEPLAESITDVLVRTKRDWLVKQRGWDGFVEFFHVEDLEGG

Broadly, the IC50 is the concentration at which inhibition is half-maximal. As to `O=C1NS(=O)(=O)NCCC/C=C/[C@H](O)[C@@H]2CC[C@H]2CN2C[C@@]3(CCCc4cc(Cl)ccc43)COc3ccc1cc32` [Example 660, (1S,3′R,6′R,7′S,8′E)-6-chloro-7′-hydroxy-3,4-dihydro-2H,16′H-spiro[naphthalene-1,23′-[21]oxa[14]thia[1,13,15]triazatetracyclo[15.7.2.0^3,6.0^20,25]hexacosa[8,17,19,25]tetraen]-16′-one 14′,14′-dioxide], the figures for the IC50 in test [1] (setting [3]) and in test [2] (setting [4]) were 0.376 nM and 416 nM, respectively.
Consider `CC[C@@H]1CC/C=C/[C@H](O)[C@@H]2CC[C@H]2CN2C[C@@]3(CCCc4cc(Cl)ccc43)COc3cc(Cl)c(cc32)C(=O)NS1(=O)=O` [Example 657, (1S,3′R,6′R,7′S,8′E,12′R)-6,17′-dichloro-12′-ethyl-7′-hydroxy-3,4-dihydro-2H,15′H-spiro[naphthalene-1,22′-[20]oxa[13]thia[1,14]diazatetracyclo[14.7.2.0^3,6.0^19,24]pentacosa[8,16,18,24]tetraen]-15′-one 13′,13′-dioxide], for which the concentration for half-maximal inhibition (IC50) in test [1] (setting [3]) stood at 11.2 nM; in test [2] (setting [4]), 24700 nM.
As to `COCCO[C@H]1/C=C/C(C)C[C@@H](COC)S(=O)(=O)NC(=O)c2ccc3c(c2)N(C[C@@H]2CC[C@H]21)C[C@@]1(CCCc2cc(Cl)ccc21)CO3` (single isomer, unassigned) [Example 1039], the figures for the IC50 in test [1] (setting [5]) and in test [2] (16 h incubation) were 0.389 nM and 198 nM, respectively.
For `CN(C)S(=O)(=O)N1CCN(C(=O)C[C@@H]2CC/C=C/[C@H](O)[C@@H]3CC[C@H]3CN3C[C@@]4(CCCc5cc(Cl)ccc54)COc4ccc(cc43)C(=O)NS2(=O)=O)CC1` (single isomer, unassigned) [Example 631], the IC50 in test [1] (setting [3]) came to 0.298 nM; in test [2] (16 h), 2530 nM.
`CC[C@@H]1CC/C=C/[C@H](OCC(=O)O)[C@@H]2CC[C@H]2CN2C[C@@]3(CCCc4cc(Cl)ccc43)COc3ccc(cc32)C(=O)NS1(=O)=O` [Example 992, (((1S,3′R,6′R,7′S,8′E,12′R)-6-chloro-12′-ethyl-13′,13′-dioxido-15′-oxo-3,4-dihydro-2H-spiro[naphthalene-1,22′-[20]oxa[13]thia[1,14]diazatetracyclo[14.7.2.0^3,6.0^19,24]pentacosa [8,16,18,24]tetraen]-7′-yl)oxy)acetic Acid]: the half-maximal inhibitory concentration (IC50) came out at 0.103 nM in test [1] (setting [5]) and 2340 nM in test [2] (setting [6]).
Consider `CC(C)OC(=O)CC1C(C)CC=CC(O)C2CCC2CN2CC3(CCCc4cc(Cl)ccc43)COc3ccc(cc32)C(=O)NS1(=O)=O` (single isomer, unassigned) [Example 566], for which the IC50 in test [1] (setting [3]) was 0.384 nM; in test [2] (16 h) it was 282 nM.
For the molecule `CCOC(=O)CO[C@@H]1/C=C/CCCS(=O)(=O)NC(=O)c2ccc3c(c2)N(C[C@@H]2CC[C@H]21)C[C@@]1(CCCc2cc(Cl)ccc21)CO3` [Example 217, ethyl(((1S,3′R,6′R,7′R,8′E)-6-chloro-13′,13′-dioxido-15′-oxo-3,4-dihydro-2H-spiro[naphthalene-1,22′-[20]oxa[13]thia[1,14]diazatetracyclo[14.7.2.0^3,6.0^19,24]pentacosa [8,16,18,24]tetraen]-7′-yl)oxy)acetate], the IC50 in test [1] (setting [5]) is 3.81 nM; in test [2] (setting [4]) it was 2660 nM.
For `COCC1C(C)CC=CC(OC)C2CCC2CN2CC3(CCCc4cc(Cl)ccc43)COc3ccc(cc32)C(=O)NS1(=O)=O` (single isomer, unassigned) [Example 460], in that order: 0.334 nM and 132 nM.
With `C[C@@H](O)C[C@@H]1CC/C=C/[C@H](O)[C@@H]2CC[C@H]2CN2C[C@@]3(CCCc4cc(Cl)ccc43)COc3ccc(cc32)C(=O)NS1(=O)=O` (single isomer, unassigned) [Example 544], the half-inhibitory concentration (IC50) in test [1] (setting [3]) came to 0.193 nM; in test [2] (16 h), 1520 nM.
Turning to `CC[C@@H]1CC/C=C/[C@H](OCC(=O)NCCN(C)C)[C@@H]2CC[C@H]2CN2C[C@@]3(CCCc4cc(Cl)ccc43)COc3ccc(cc32)C(=O)NS1(=O)=O` [Example 995, 2-(((1S,3′R,6′R,7′S,8′E,12′R)-6-chloro-12′-ethyl-13′,13′-dioxido-15′-oxo-3,4-dihydro-2H-spiro[naphthalene-1,22′-[20]oxa[13]thia[1,14]diazatetracyclo[14.7.2.0^3,6.0^19,24]pentacosa [8,16,18,24]tetraen]-7′-yl)oxy)-N-(2-(dimethylamino)ethyl)acetamide], the values for the IC50 in test [1] (setting [5]) and in test [2] (setting [6]) were 0.872 nM and 1680 nM, respectively.
In the case of `C[C@@H]1[C@@H](C)C/C=C/[C@H](OCC(=O)N(C)C)[C@@H]2CC[C@H]2CN2C[C@@]3(CCCc4cc(Cl)ccc43)COc3ccc(cc32)C(=O)NS1(=O)=O` [Example 295, 2-(((1S,3′R,6′R,7′S,8′E,11′S,12′R)-6-chloro-11′,12′-dimethyl-13′,13′-dioxido-15′-oxo-3,4-dihydro-2H-spiro[naphthalene-1,22′-[20]oxa[13]thia[1,14]diazatetracyclo[14.7.2.0^3,6.0^19,24]pentacosa [8,16,18,24]tetraen]-7′-yl)oxy)-N,N-dimethylacetamide], the concentration for half-maximal inhibition (IC50) in test [1] (setting [5]) was 0.19 nM; in test [2] (setting [4]) it was 151 nM.
Consider `COCCO[C@H]1/C=C/C[C@@H]2COC[C@H]2S(=O)(=O)NC(=O)c2ccc3c(c2)N(C[C@@H]2CC[C@H]21)C[C@@]1(CCCc2cc(Cl)ccc21)CO3` (single isomer, unassigned) [Example 1033], for which the IC50 in test [1] (setting [5]) came out at 0.366 nM; in test [2] (16 h incubation) it was 205 nM.
For the molecule `O=C1NS(=O)(=O)[C@@H]2CCC[C@H]2C/C=C/[C@H](O)[C@@H]2CC[C@H]2CN2C[C@@]3(CCCc4cc(Cl)ccc43)COc3ccc1cc32` (single isomer, unassigned) [Example 325], the IC50 is 0.297 nM in test [1] (setting [5]) and 208 nM in test [2] (16 h).
In the case of `CC1CC(C)C(C)S(=O)(=O)NC(=O)c2ccc3c(c2)N(CC2CCC2C(O)C1)CC1(CCCc2cc(Cl)ccc21)CO3` (single isomer, unassigned) [Example 259], the 50% inhibitory concentration (IC50) in test [1] (setting [5]) worked out at 44.4 nM; in test [2] (setting [4]), 23000 nM.
Take `COC[C@H](O)C[C@@H]1CC/C=C/[C@H](OC)[C@@H]2CC[C@H]2CN2C[C@@]3(CCCc4cc(Cl)ccc43)COc3ccc(cc32)C(=O)NS1(=O)=O` (single isomer, unassigned) [Example 652]: the IC50 amounted to 2.4 nM in test [1] (setting [3]) and 4460 nM in test [2] (16 h).
Taken in the same sequence, the figures for `O=C1NS(=O)(=O)C[C@@H]2C[C@@H]2/C=C/[C@H](O)[C@@H]2CC[C@H]2CN2C[C@@]3(CCCc4cc(Cl)ccc43)COc3ccc1cc32` (single isomer, unassigned) [Example 784] were 2.69 nM and 14200 nM.
On to `NC(=O)OC[C@@H]1CC/C=C/[C@H](O)[C@@H]2CC[C@H]2CN2C[C@@]3(CCCc4cc(Cl)ccc43)COc3ccc(cc32)C(=O)NS1(=O)=O` (single isomer, unassigned) [Example 611], for which the half-maximal inhibitory concentration (IC50) in test [1] (setting [3]) turned out to be 0.275 nM; in test [2] (setting [4]), 8490 nM.
`CC[C@@H]1CC/C=C/[C@H](OCCC(=O)N2CCOCC2)[C@@H]2CC[C@H]2CN2C[C@@]3(CCCc4cc(Cl)ccc43)COc3ccc(cc32)C(=O)NS1(=O)=O` [Example 1011, (1S,3′R,6′R,7′S,8′E,12′R)-6-chloro-12′-ethyl-7′-(3-(4-morpholinyl)-3-oxopropoxy)-3,4-dihydro-2H,15′H-spiro[naphthalene-1,22′-[20]oxa[13]thia[1,14]diazatetracyclo[14.7.2.0^3,6.0^19,24]pentacosa [8,16,18,24]tetraen]-15′-one 13′,13′-dioxide]: the 50% inhibitory concentration (IC50) in test [1] (setting [5]) stood at 0.347 nM; in test [2] (setting [6]), 524 nM.
As to `C[C@@H]1[C@@H](C)/C=C/[C@H](O)[C@@H]2CC[C@H]2CN2C[C@@]3(CCCc4cc(Cl)ccc43)COc3ccc(cc32)C(=O)NS1(=O)=O` (single isomer, unassigned) [Example 166], the 50% inhibitory concentration (IC50) in test [1] (setting [5]) was 0.418 nM; in test [2] (16 h) it was 2070 nM.
`C=CCN1CCCC[C@H](O)[C@@H]2CC[C@H]2CN2C[C@@]3(CCCc4cc(Cl)ccc43)COc3ccc(cc32)C(=O)NS1(=O)=O` [Example 87, (1S,3′R,6′R,7′S)-6-chloro-7′-hydroxy-12′-(2-propen-1-yl)-3,4-dihydro-2H,15′H-spiro[naphthalene-1,22′-[20]oxa[13]thia[1,12,14]triazatetracyclo[14.7.2.0^3,6.0^19,24]pentacosa[16,18,24]trien]-15′-one 13′,13′-dioxide]: the IC50 in test [1] (setting [5]) is 3.31 nM; in test [2] (setting [4]), 3540 nM.
As for `CC[C@@H]1CC/C=C/[C@H](OCCC(=O)O)[C@@H]2CC[C@H]2CN2C[C@@]3(CCCc4cc(Cl)ccc43)COc3ccc(cc32)C(=O)NS1(=O)=O` [Example 1008, 3-(((1S,3′R,6′R,7′S,8′E,12′R)-6-chloro-12′-ethyl-13′,13′-dioxido-15′-oxo-3,4-dihydro-2H-spiro[naphthalene-1,22′-[20]oxa[13]thia[1,14]diazatetracyclo[14.7.2.0^3,6.0^19,24]pentacosa [8,16,18,24]tetraen]-7′-yl)oxy)propanoic Acid], the IC50 amounted to 0.232 nM in test [1] (setting [5]) and 5590 nM in test [2] (setting [6]).
For `CC[C@@H]1CC/C=C/[C@H](OCCC(=O)N(C)C)[C@@H]2CC[C@H]2CN2C[C@@]3(CCCc4cc(Cl)ccc43)COc3ccc(cc32)C(=O)NS1(=O)=O` [Example 1010, 3-(((1S,3′R,6′R,7′S,8′E,12′R)-6-chloro-12′-ethyl-13′,13′-dioxido-15′-oxo-3,4-dihydro-2H-spiro[naphthalene-1,22′-[20]oxa[13]thia[1,14]diazatetracyclo[14.7.2.0^3,6.0^19,24]pentacosa [8,16,18,24]tetraen]-7′-yl)oxy)-N,N-dimethylpropanamide], in that order: 0.377 nM and 298 nM.

Source of the values: patent publication US12091425B2 (AMGEN INC., priority 2016, dated 2024).
